Patent US5744492A, “Method for inhibiting angiogenesis” (United States of America, priority 1994, dated 1998)
Like-named read-outs stand apart in the source and are kept apart here.

Legend:
[1] = test system: HUVECs; test: HUVEC motility (modified Boyden chamber chemotaxis); format: cell-based, human; conditions: 18 hr preincubation
Experimental: (§1) Human umbilical vein endothelial cells (H 930) were generously supplied by Dr. Tom Maciag, American Red Cross (Gaithersburg, Md., USA) and were used between passages 9 and 14 to avoid senescence. HUVECs were grown on fibronectin-coated tissue culture plastic (200 μg/150 mm dish) in complete medium (Medium 199 (M-199) containing 5 U/mL preservative-free heparin, 25.5 μg/mL ECGS, 10% fetal bovine serum and 100 U/mL penicillin, 100 μg/mL streptomycin, and 0.25 μg/mL fungizone).
A modified Boyden chamber system was used to determine whether compound 1 could modulate the chemotactic stimulation of endothelial cells by fibronectin, laminin, type IV collagen or thrombospondin. The particular system used has been described for tumor cell motility. See, Minniti, et al., J. Biol. Chem. 267:9000-9004 (1992). Modifications were made as to cell number, membrane pore size, and time of incubation were tested to determine optimal conditions for the HUVECs.
HUVECs were pretreated as described above for adhesion and resuspended at 2×10^6 cells/mL in M-199 containing 0.1% bovine serum albumin. Cells were seeded in the upper compartment of the chamber separated from the lower compartment by a gelatin-coated Nucleopore filter with 8μ pores. Laminin (100 μg/mL), fibronectin (30 μg/mL), type IV collagen (100 μg/mL) or thrombospondin (20 μg/mL) were diluted from stock solutions into control medium (M-199 plus 0.1% BSA) and were used as chemoattractants in the lower chamber. HUVECs were incubated with DMSO control (0.1%) or compound 1 (0.1-10 μM) for 18 hr prior to the motility assay. Compound 1 and DMSO were maintained with the cells throughout the experiment. Assays were incubated at 37° C. for 2 hours after which the filters were removed, fixed, and stained. Cell migration was quantited by counting five high power fields in triplicate pellets of migrated cells. Results are expressed as percentage of control cell migration (x±SEM, n=3).

[2] = test system: MMP-2; test: Northern blot analysis of MMP-2 expression in HUVECs; format: cell-based, human; conditions: 24 hr; for inhibition at 10 µM: Homo sapiens, HUVEC
Experimental: as §1
HUVECs were grown to confluence as described. Fresh complete medium with test compounds was added to confluent cells for an additional 24 hr incubation. bFGF (10 ng/mL), and/or compound 1 (10 μM) or DMSO control (0.1%) were added as indicated below. Total RNA was isolated by the guanidine isothiocyanate/CsCl method. Aliquots of RNA (7.5 μg) were separated on 1% agarose/formaldehyde gels, passively transferred to GeneScreen Plus membrane in 20X SSC, then cross-linked with ultraviolet light. Blots were prewashed for 1 hr at 42° C. in 1M NaCl, 10 mM Tris, 1 mM EDTA, 0.1% SDS and then hybridized overnight at 42° C. with a formamide-containing buffer (hybridization buffer final: 50% formamide, 4X SSC, 10 mM Tris pH 7.5, IX Denhardt solution, 0.2% SDS, 125 μg/ml salmon sperm DNA) with a random-primed 300 bp insert for MMP-2 (gift of Dr. William Stetler-Stevenson, Laboratory of Pathology, NCI). Blots were washed under stringent conditions then exposed to film. After removal of MMP-2 probe, blots were rehybridized with β-actin probe for quantitation of the RNA load. Results were quantitated by densitometric evaluation of the autoradiographs.
Lane 1 corresponds to the mRNA from HUVECs treated with DMSO (control). Lanes 2-4 show the mRNA isolated from HUVECs treated with compound 1 (10 μM) alone, compound 1 (10 μM) and bFGF (10 ng/mL), bFGF (10 ng/mL) alone, respectively.

[3] = test system: HUVECs; test: HUVEC vascular tube formation on Matrigel; format: cell-based, human; conditions: 24 hr
Experimental: as §1
After 12-24 hours, this rearrangement leads to the development of a network of tube-like structures that resemble capillaries. See, Kubota, et al., J. Cell Biol. 107:1589-1598 (1988).
Matrigel is a solution of murine basement membrane enriched for laminin and collagen type IV and has been used previously as a permissive substrate for vessel formation. See, Albini, et al., Int. J. Oncol. 1:723-730 (1992). The effect of compound 1 on in vitro tube formation was tested using this system. Individual wells of 24 well plates were coated with a 300 μL aliquot of concentrated Matrigel solution (10 mg/mL) and allowed to solidify for 1 hr at 37° C. Compound 1 (1.0, 10 or 20 μM) or DMSO control (0.1%) was added to Matrigel and to the culture media. HUVECs (50,000 cells/well) were incubated on the Matrigel in complete medium for 24 hr then evaluated by phase contrast microscopy and photographed.

[4] = test system: HUVECs; test: bFGF-stimulated HUVEC growth in low serum (1% FCS), crystal violet; format: cell-based; conditions: Homo sapiens, bFGF 10 ng/ml
Experimental: as §1
Growth inhibition of HUVECs by compound 1 was measured by crystal violet nuclear stain. Briefly, 50,000 cells were seeded per well in 24 well plates using complete medium in the presence of increasing concentrations of compound 1 (0.01-10 μM) or DMS0 vehicle control (0.1%) and cultures were incubated for 24-120 hours. […] Optical density of the eluted samples was determined at 540 nm and the results were expressed as percent of DMSO control cell growth. Data are expressed as percentage of control value and are presented as mean±SEM (n=3).
To evaluate the effect of bFGF on HUVECs growth, cells were plated in low serum medium (1% FCS) in the presence of 10 ng/ml of bFGF and increasing concentrations of compound 1. At the indicated time, cells were fixed, stained, and quantitated as described above.

[5] = bFGF 10 ng/mL + Compound 1 10 μM

NC(=O)c1nnn(Cc2cc(Cl)c(C(=O)c3ccc(Cl)cc3)c(Cl)c2)c1N [Compound 1, 5-amino-1-(4-(4-chlorobenzoyl)-3,5-dichlorobenzyl)1,2,3-triazole-4-carboxamide]
inhibition of HUVEC motility towards type IV collagen (in words) ([1]; 1 μM, P2, 0.018): statistically significant dose-dependent inhibition | inhibition of HUVEC motility towards laminin (in words) ([1]; 1 μM, P2<0.009): statistically significant dose-dependent inhibition | inhibition of HUVEC motility towards all attractants (fibronectin, laminin, type IV collagen and thrombospondin) (in words) ([1]; 10 μM, p2<0.001): statistically significant dose-dependent inhibition | Corrected values (MMP-2 mRNA corrected for loading) ([2]; Control + Compound 1, 10 μM): 0.30 | MMP-2 (densitometer) ([2]; Control + Compound 1, 10 μM): 38 Densitometer units | inhibition at 10 µM ([2]; no bFGF, vs control, read-out: % Inhibition of native MMP-2 expression): 86% | inhibition at 10 µM ([2]; bFGF 10 ng/mL, vs bFGF, read-out: % Inhibition of MMP-2 expression in presence of bFGF): 62% | Corrected values (MMP-2 mRNA corrected for loading) [2, 5]: 0.14 | MMP-2 (densitometer) [2, 5]: 31 Densitometer units | inhibition of tube formation (in words) ([3]; 20 μM, similar when omitted from the Matrigel): more striking inhibition of tube formation | appearance of multicellular tubes vs DMSO control (in words) ([3]; compound in Matrigel and media, similar when only in media): less extensive, thinner, foreshortened, and less cellular | inhibition at 10 µM ([4]; 72 h, 3 days from seeding, P2<0.01): 25% | inhibition at 10 µM ([4]; 120 h, 5 days from seeding, P2<0.005): 45%
